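Method: 48-hour compound exposure of cells in 96-well plates, five concentrations, linear interpolation of endpoints. GI50 = concentration required for 50% inhibition of growth.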 Calls of active or inactive are those of the source. No stated cut-off is given here; in the data, active = GI50 up to about 1.1 µM and inactive = higher.
Assays:
Assay in all cases: NCI tumour cell line growth inhibition, 48 h
[1] = tested on: IGROV-1
[2] = tested on: CCRF-CEM
[3] = tested on: K562
[4] = tested on: UACC-257
[5] = tested on: MDA-MB-231
[6] = tested on: RXF 393
[7] = tested on: RPMI-8226
[8] = tested on: OVCAR-4
[9] = tested on: MDA-MB-435
[10] = tested on: ACHN
[11] = tested on: SNB-19
[12] = tested on: A549
[13] = tested on: HCT-15
[14] = tested on: 786-0
[15] = tested on: SN12C
[16] = tested on: SR
[17] = tested on: MDA-N
[18] = tested on: NCI-H23
[19] = tested on: T47D
[20] = tested on: NCI/ADR-RES
[21] = tested on: SW-620
[22] = tested on: UACC-62
[23] = tested on: SF-295
[24] = tested on: DU-145
[25] = tested on: SNB-75
[26] = tested on: LOX IMVI
[27] = tested on: M14
[28] = tested on: HCT-116
[29] = tested on: BT-549
[30] = tested on: HOP-62
[31] = tested on: CAKI-1
[32] = tested on: SK-MEL-28
[33] = tested on: SF-539
[34] = tested on: OVCAR-8
[35] = tested on: MCF7
[36] = tested on: U-251
[37] = tested on: OVCAR-5
[38] = tested on: NCI-H226
[39] = tested on: PC-3
[40] = tested on: NCI-H460
[41] = tested on: COLO 205
[42] = tested on: A498
[43] = tested on: SK-MEL-5
[44] = tested on: EKVX
[45] = tested on: KM12
[46] = tested on: HOP-92
[47] = tested on: SK-MEL-2
[48] = tested on: HCC 2998
[49] = tested on: OVCAR-3
[50] = tested on: UO-31
[51] = tested on: MOLT-4
[52] = tested on: HT-29
[53] = tested on: Hs-578T
[54] = tested on: HL-60
[55] = tested on: NCI-H522
[56] = tested on: SF-268

For `CSC12c3cc(C)n(-c4ccc([N+](=O)[O-])cc4)c3CC(C)(C)CN1C(=O)C2Oc1ccccc1` (stereo not given), the GI50 [1] was > 100 µM (inactive), the GI50 [2] was > 100 µM (inactive) and the GI50 [3] was > 100 µM (inactive). The GI50 [4] was 70 µM (inactive), the GI50 [5] was 96.6 µM (inactive) and the GI50 [6] was > 100 µM (inactive). The GI50 [7] was 31.9 µM (inactive), the GI50 [8] was 4.72 µM (inactive) and the GI50 [9] was 19.8 µM (inactive). The GI50 [10] was > 100 µM (inactive), the GI50 [11] was 80.9 µM (inactive) and the GI50 [12] was 46.1 µM (inactive). For the same compound, the GI50 [13] was greater than 100 µM, the GI50 [14] was > 100 µM (inactive) and the GI50 [15] was > 100 µM (inactive). The GI50 [16] was > 100 µM (inactive), the GI50 [17] was > 100 µM (inactive) and the GI50 [18] was 74.1 µM (inactive). For the same compound, the GI50 [19] was 32.7 µM (inactive), the GI50 [20] was > 100 µM (inactive) and the GI50 [21] was > 100 µM (inactive). The GI50 [22] was 22.2 µM (inactive), the GI50 [23] was > 100 µM (inactive) and the GI50 [24] was > 100 µM (inactive). For the same compound, the GI50 [25] was 10.6 µM (inactive), the GI50 [26] was > 100 µM (inactive) and the GI50 [27] was > 100 µM (inactive). For the same compound, the GI50 [28] was 54.2 µM (inactive), the GI50 [29] was > 100 µM (inactive) and the GI50 [30] was > 100 µM (inactive). For the same compound, the GI50 [31] was 18.5 µM (inactive), the GI50 [32] was > 100 µM (inactive) and the GI50 [33] was > 100 µM (inactive). For the same compound, the GI50 [34] was > 100 µM (inactive), the GI50 [35] was 28.6 µM (inactive) and the GI50 [36] was > 100 µM (inactive). The GI50 [37] was > 100 µM (inactive), the GI50 [38] was > 100 µM (inactive) and the GI50 [39] was > 100 µM (inactive). The GI50 [40] was 71.9 µM (inactive), the GI50 [41] was > 100 µM (inactive) and the GI50 [42] was 10.6 µM (inactive). The GI50 [43] was > 100 µM (inactive), the GI50 [44] was 36 µM (inactive) and the GI50 [45] was 1.73 µM (inactive). For the same compound, the GI50 [46] was 24.2 µM (inactive), the GI50 [47] was > 100 µM (inactive) and the GI50 [48] was 35.5 µM (inactive). The GI50 [49] was > 100 µM (inactive), the GI50 [50] was > 100 µM (inactive) and the GI50 [51] was > 100 µM (inactive).
With `CC1CC[P+](c2ccccc2)(c2ccccc2)c2c1ccc1ccccc21` (stereo not given) the GI50 [2] was 4.3 µM (inactive), the GI50 [3] was 0.942 µM (active) and the GI50 [4] was 0.607 µM (active). For the same compound, the GI50 [6] was 9.77 µM (inactive), the GI50 [8] was 12.6 µM (inactive) and the GI50 [9] was 2.78 µM (inactive). The GI50 [10] was 14 µM (inactive), the GI50 [11] was 4.07 µM (inactive) and the GI50 [12] was 9.1 µM (inactive). For the same compound, the GI50 [13] was 40.5 µM, the GI50 [15] was 3.94 µM (inactive) and the GI50 [18] was 2.4 µM (inactive). The GI50 [19] was 0.698 µM (active), the GI50 [22] was 4.13 µM (inactive) and the GI50 [23] was 3.33 µM (inactive). The GI50 [25] was 1.79 µM (inactive), the GI50 [52] was 2.32 µM (inactive) and the GI50 [26] was 2.25 µM (inactive). For the same compound, the GI50 [27] was 5.89 µM (inactive), the GI50 [28] was 2.67 µM (inactive) and the GI50 [29] was 1.23 µM (inactive). The GI50 [31] was 7.85 µM (inactive), the GI50 [33] was 4.82 µM (inactive) and the GI50 [34] was 2.44 µM (inactive). The GI50 [35] was 2.14 µM (inactive), the GI50 [37] was 5.81 µM (inactive) and the GI50 [53] was 1.79 µM (inactive). The GI50 [39] was 1.51 µM (inactive), the GI50 [54] was 2.51 µM (inactive) and the GI50 [40] was 2.64 µM (inactive). The GI50 [43] was 1.34 µM (inactive), the GI50 [45] was 3.13 µM (inactive) and the GI50 [46] was 1.15 µM (inactive). For the same compound, the GI50 [47] was 1.79 µM (inactive), the GI50 [48] was 6.12 µM (inactive) and the GI50 [50] was 27 µM (inactive). The GI50 [51] was 6.75 µM (inactive), the GI50 [55] was 1.16 µM (inactive) and the GI50 [56] was 7.89 µM (inactive).
